In ChEMBL document CHEMBL1149855, “Dihydrobenzo[c]phenanthridine alkaloids from stem bark of Zanthoxylum nitidum” (J Nat Prod, 2008):
Active and inactive are the calls of the source.

Tests used:
Assay type in all cases: functional, cell-based
NCI-H460 = test: Cytotoxicity against human NCI-H460 cells up to 29.2 ug/mL after 72 hrs by MTS reduction assay
MCF7 = test: Cytotoxicity against human MCF7 cells up to 29.2 ug/mL after 72 hrs by MTS reduction assay
SF-268 = test: Cytotoxicity against human SF268 cells up to 29.2 ug/mL after 72 hrs by MTS reduction assay

Measured: Activity

COc1ccc2c(c1OC)[C@H](CC1=C[C@@H]3[C@@H](CC1)[C@](C)(OC)CC[C@H]3C(C)C)N(C)c1c-2ccc2cc3c(cc12)OCO3
inactive: all assays above

COc1ccc2c(c1OC)[C@@H](CC1=C[C@@H]3[C@@H](CC1)[C@@](C)(OC)CC[C@H]3C(C)C)N(C)c1c-2ccc2cc3c(cc12)OCO3
inactive: all assays above

COc1ccc2c(c1OC)[C@@H](CC1=C[C@H]3[C@H](C(C)C)CC[C@](C)(OC)[C@H]3CC1)N(C)c1c-2ccc2cc3c(cc12)OCO3
inactive: all assays above

COc1ccc2c(c1OC)[C@@H](CC1=C[C@@H]3[C@@H](CC1)[C@](C)(OC)CC[C@H]3C(C)C)N(C)c1c-2ccc2cc3c(cc12)OCO3
inactive: all assays above

COc1ccc2c(c1OC)[C@H](CC1=C[C@H]3[C@H](C(C)C)CC[C@](C)(OC)[C@H]3CC1)N(C)c1c-2ccc2cc3c(cc12)OCO3
inactive: all assays above
